Where two headings read alike, the source gives them in different places.
Molecular target: PDEδ (Homo sapiens (Human), UniProt O43924)
Assay: Fluorescence polarization competition binding assay: displacement titration of labeled Atorvastatin probe for KD
Description: Example D.2: Displacement Titrations of Labeled Atorvastatin-Probe for the Determination of KD Values
Displacement Titrations of Labeled Atorvastatin-Probe for the Determination of KD Values:
The purification was followed by size exclusion gel filtration on a Superdex 75 S26/60 column using buffer A (25 mM Tris-HCl, pH 7.5, 150 mM NaCl and 3 mM DTE).

[1] = fluorescence polarization assay, activity classes, read-out: KD

Kd [1] | Structure (SMILES) | Kd
30 to 100 nM | CNc1ncc(Br)c(CN(CC2CCCCC2)S(=O)(=O)c2ccc(S(=O)(=O)N(Cc3ccc(Cl)cc3)C3CCCC3)cc2)n1 [Compound 5, N1-((5-bromo-2-(methylamino)pyrimidin-4-yl)methyl)-N4-(4-chlorobenzyl)-N1-(cyclohexylmethyl)-N4-cyclopentylbenzene-1,4-disulfonamide] | 
> 1000 nM | CCOc1ccc(CN(CC2CCCO2)S(=O)(=O)c2ccc(S(=O)(=O)N3CCCCC3)cc2)cc1 (stereo not shown) [Compound 79, N-(4-ethoxybenzyl)-4-(piperidin-1-ylsulfonyl)-N-((tetrahydrofuran-2-yl)methyl)benzenesulfonamide] | 
> 1000 nM | CN(Cc1ccccc1)S(=O)(=O)c1ccc(S(=O)(=O)N(Cc2ccccc2)Cc2ccccc2F)cc1 [Compound 96, N1,N4-dibenzyl-N1-(2-fluorobenzyl)-N4-methylbenzene-1,4-disulfonamide] | 
100 to 1000 nM | CCOc1ccccc1CN(Cc1ccco1)S(=O)(=O)c1ccc(S(=O)(=O)NC2CCCCC2)cc1 [Compound 76, N1-cyclohexyl-N4-(2-ethoxybenzyl)-N4-(furan-2-ylmethyl)benzene-1,4-disulfonamide] | 
30 to 100 nM | CNc1nccc(CN(CC2CCCCC2)S(=O)(=O)c2ccc(S(=O)(=O)N(Cc3ccc(Cl)cc3)C3CCCC3)cc2)n1 [Compound 20, N1-(4-chlorobenzyl)-N4-(cyclohexylmethyl)-N1-cyclopentyl-N4-((2-(methylamino)pyrimidin-4-yl)methyl)benzene-1,4-disulfonamide] | 
1 to 30 nM | CCN(Cc1ccccc1)S(=O)(=O)c1ccc(S(=O)(=O)N(Cc2ccccc2F)CC2CCCO2)cc1 (stereo not shown) [Compound 55, N1-benzyl-N1-ethyl-N4-(2-fluorobenzyl)-N4-((tetrahydrofuran-2-yl)methyl)benzene-1,4-disulfonamide] | 
1 to 30 nM | O=S(=O)(NCC1CCNCC1)c1ccc(S(=O)(=O)N(Cc2ccc(Cl)cc2)C2CCCC2)cc1 [Compound 45, N1-(4-chlorobenzyl)-N1-cyclopentyl-N4-(piperidin-4-ylmethyl)benzene-1,4-disulfonamide] | 
1 to 30 nM | CC(C)c1ccc(CN(CC2CCCO2)S(=O)(=O)c2ccc(S(=O)(=O)N(C)C3CCCCC3)cc2)cc1 (stereo not shown) [Compound 56, N1-cyclohexyl-N4-(4-isopropylbenzyl)-N1-methyl-N4-((tetrahydrofuran-2-yl)methyl)benzene-1,4-disulfonamide] | 
1 to 30 nM | O=S(=O)(c1ccc(S(=O)(=O)N(Cc2ccc(Cl)cc2)C2CCCC2)cc1)N(Cc1ccccc1)CC1CCCNC1 (stereo not shown) [Compound 26, N1-benzyl-N4-(4-chlorobenzyl)-N4-cyclopentyl-N1-(piperidin-3-ylmethyl)benzene-1,4-disulfonamide] | 
100 to 1000 nM | O=S(=O)(NCC1CCCO1)c1ccc(S(=O)(=O)N(Cc2ccccc2)Cc2ccc(Cl)cc2)cc1 (stereo not shown) [Compound 62, N1-benzyl-N1-(4-chlorobenzyl)-N4-((tetrahydrofuran-2-yl)methyl)benzene-1,4-disulfonamide] | 
100 to 1000 nM | CC(C)c1ccc(CN(Cc2ccco2)S(=O)(=O)c2ccc(S(=O)(=O)N(C)Cc3ccccc3)cc2)cc1 [Compound 59, N1-benzyl-N4-(furan-2-ylmethyl)-N4-(4-isopropylbenzyl)-N1-methylbenzene-1,4-disulfonamide] | 
30 to 100 nM | COc1ccc(CN(Cc2ccccc2Cl)S(=O)(=O)c2ccc(S(=O)(=O)N3CCCCC3)cc2)cc1 [Compound 81, N-(2-chlorobenzyl)-N-(4-methoxybenzyl)-4-(piperidin-1-ylsulfonyl)benzenesulfonamide] | 
1 to 30 nM | CN(Cc1ccccc1)S(=O)(=O)c1ccc(S(=O)(=O)N(Cc2ccc(F)cc2)C2CCCCC2)cc1 [Compound 61, N1-benzyl-N4-cyclohexyl-N4-(4-fluorobenzyl)-N1-methylbenzene-1,4-disulfonamide] | 
100 to 1000 nM | CCOc1ccc(CN(Cc2ccc(OC)cc2)S(=O)(=O)c2ccc(S(=O)(=O)N3CCCCC3)cc2)cc1 [Compound 85, N-(4-ethoxybenzyl)-N-(4-methoxybenzyl)-4-(piperidin-1-ylsulfonyl)benzenesulfonamide] | 
100 to 1000 nM | Cc1ccc(CN(C2CCCC2)S(=O)(=O)c2ccc(S(=O)(=O)N(Cc3ccccn3)c3sccc3C)cc2)cc1 [Compound 42] | 
30 to 100 nM | O=S(=O)(c1ccc(S(=O)(=O)N(Cc2cccc(Br)c2)C2CCCC2)cc1)N(Cc1ccccc1)CC1CCNCC1 [Compound 17, N1-benzyl-N4-(3-bromobenzyl)-N4-cyclopentyl-N1-(piperidin-4-ylmethyl)benzene-1,4-disulfonamide] | 
100 to 1000 nM | O=CC1Cc2ccccc2N1S(=O)(=O)c1ccc(S(=O)(=O)N(Cc2ccc(Cl)cc2)C2CCCC2)cc1 (stereo not shown) [Compound 38] | 
100 to 1000 nM | O=S(=O)(c1ccc(S(=O)(=O)N(Cc2cc(Br)cc(C(F)(F)F)c2)C2CCCC2)cc1)N(Cc1ccccc1)CC1CCNCC1 [Compound 25, N1-benzyl-N4-(3-bromo-5-(trifluoromethyl)benzyl)-N4-cyclopentyl-N1-(piperidin-4-ylmethyl)benzene-1,4-disulfonamide] | 

Kd [1] | Structure (SMILES) | Kd
30 to 100 nM | CN(C1CCCCC1)S(=O)(=O)c1ccc(S(=O)(=O)N(Cc2ccc(F)cc2)C2CC2)cc1 [Compound 83, N1-cyclohexyl-N4-cyclopropyl-N4-(4-fluorobenzyl)-N1-methylbenzene-1,4-disulfonamide] | 
100 to 1000 nM | O=S(=O)(c1ccc(S(=O)(=O)N(Cc2ccccn2)C2CCCO2)cc1)N(Cc1ccccn1)C1CCCO1 (stereo not shown) [Compound 1] | 
> 1000 nM | COc1ccc(CN(Cc2ccc3c(c2)OCO3)S(=O)(=O)c2ccc(S(=O)(=O)NC3CCCCC3)cc2)cc1OC [Compound 75, N1-(benzo[d][1,3]dioxol-5-ylmethyl)-N4-cyclohexyl-N1-(3,4-dimethoxybenzyl)benzene-1,4-disulfonamide] | 
30 to 100 nM | CC1CCCN(S(=O)(=O)c2ccc(S(=O)(=O)N(Cc3ccccc3Cl)CC3CCCO3)cc2)C1 (stereo not shown) [Compound 50, N-(2-chlorobenzyl)-4-((3-methylpiperidin-1-yl)sulfonyl)-N-((tetrahydrofuran-2-yl)methyl)benzenesulfonamide] | 
 | CC(C)(C)[Si](C)(C)Oc1ccc(CNS(=O)(=O)c2ccc(S(=O)(=O)N(Cc3ccc(Cl)cc3)C3CCCC3)cc2)cc1 [Compound 15] | 30 to 100 nM
1 to 30 nM | COC(=O)c1ccc(CN(CC2CCNCC2)S(=O)(=O)c2ccc(S(=O)(=O)N(Cc3ccc(Cl)cc3)C3CCCC3)cc2)cc1N [Compound 23, methyl 2-amino-4-(((4-(N-(4-chlorobenzyl)-N-cyclopentylsulfamoyl)-N-(piperidin-4-ylmethyl)phenyl)sulfonamido)methyl)benzoate] | 
1 to 30 nM | CN1CCC(CN(Cc2ccccc2)S(=O)(=O)c2ccc(S(=O)(=O)N(Cc3ccc(Cl)cc3)C3CCCC3)cc2)CC1 [Compound 6, N1-benzyl-N4-(4-chlorobenzyl)-N4-cyclopentyl-N1-((1-methylpiperidin-4-yl)methyl)benzene-1,4-disulfonamide] | 
30 to 100 nM | CC(C)(C)c1cc(Br)cc(CN(C2CCCC2)S(=O)(=O)c2ccc(S(=O)(=O)N(Cc3ccccc3)CC3CCNCC3)cc2)c1 [Compound 24, N1-benzyl-N4-(3-bromo-5-(tert-butyl)benzyl)-N4-cyclopentyl-N1-(piperidin-4-ylmethyl)benzene-1,4-disulfonamide] | 
30 to 100 nM | O=S(=O)(NCc1ccccc1)c1ccc(S(=O)(=O)N(Cc2ccc(Cl)cc2)C2CCCC2)cc1 [Compound 100, N1-benzyl-N4-(4-chlorobenzyl)-N4-cyclopentylbenzene-1,4-disulfonamide] | 
100 to 1000 nM | O=S(=O)(NCC1CCCO1)c1ccc(S(=O)(=O)N(Cc2ccc(F)cc2)C2CCCCC2)cc1 (stereo not shown) [Compound 88, N1-cyclohexyl-N1-(4-fluorobenzyl)-N4-((tetrahydrofuran-2-yl)methyl)benzene-1,4-disulfonamide] | 
1 to 30 nM | CC(C)c1ccc(CN(CC2CCCO2)S(=O)(=O)c2ccc(S(=O)(=O)NCc3ccccc3)cc2)cc1 (stereo not shown) [Compound 63, N1-benzyl-N4-(4-isopropylbenzyl)-N4-((tetrahydrofuran-2-yl)methyl)benzene-1,4-disulfonamide] | 
30 to 100 nM | O=S(=O)(c1ccc(S(=O)(=O)N(Cc2ccc(Cl)cc2)C2CCCC2)cc1)N(CC1CCCCC1)c1ccccc1Br [Compound 36, N1-(2-bromophenyl)-N4-(4-chlorobenzyl)-N1-(cyclohexylmethyl)-N4-cyclopentylbenzene-1,4-disulfonamide] | 
100 to 1000 nM | O=S(=O)(c1ccc(S(=O)(=O)N(Cc2ccc(Cl)cc2)C2CCCC2)cc1)N(CCCCO)CC1CCCCC1 [Compound 33] | 
> 1000 nM | O=S(=O)(NCc1ccccc1)c1ccc(S(=O)(=O)N(Cc2ccco2)Cc2ccccc2F)cc1 [Compound 66, N1-benzyl-N4-(2-fluorobenzyl)-N4-(furan-2-ylmethyl)benzene-1,4-disulfonamide] | 
> 1000 nM | CN(Cc1ccccc1)S(=O)(=O)c1ccc(S(=O)(=O)N(Cc2ccc(Cl)cc2)Cc2ccco2)cc1 [Compound 74, N1-benzyl-N4-(4-chlorobenzyl)-N4-(furan-2-ylmethyl)-N1-methylbenzene-1,4-disulfonamide] | 
30 to 100 nM | O=S(=O)(c1ccc(S(=O)(=O)N(Cc2ccc(Cl)cc2)C2CCCC2)cc1)N(Cc1ccccc1Br)CC1CCCCC1 [Compound 34, N1-(2-bromobenzyl)-N4-(4-chlorobenzyl)-N1-(cyclohexylmethyl)-N4-cyclopentylbenzene-1,4-disulfonamide] | 
100 to 1000 nM | O=S(=O)(c1ccc(S(=O)(=O)N(Cc2ccc(Cl)cc2)Cc2ccco2)cc1)N1CCCCCC1 [Compound 52, 4-(azepan-1-ylsulfonyl)-N-(4-chlorobenzyl)-N-(furan-2-ylmethyl)benzenesulfonamide] | 

Structure (SMILES) | Kd [1] | Kd
CC(C)(C)[Si](C)(C)OCCN(CC1CCCCC1)S(=O)(=O)c1ccc(S(=O)(=O)N(Cc2ccc(Cl)cc2)C2CCCC2)cc1 [Compound 28] | 100 to 1000 nM | 
CC(C)(C)[Si](C)(C)OCCCCN(CC1CCCCC1)S(=O)(=O)c1ccc(S(=O)(=O)N(Cc2ccc(Cl)cc2)C2CCCC2)cc1 [Compound 30] | 100 to 1000 nM | 

Source: patent publication US10913710B2, “Benzene disulfonamide for the treatment of cancer” (priority 2017, dated 2021)
